Experiment [1] has as its system Jurkat cells. Briefly: Production of IL-2 by Jurkat T lymphoma cells. The class given is cell-based, human. Here is the method: (§1) Typically, peripheral blood lymphocytes (PBL) from normal donors are incubated (2×10^6 cells/ml) in RPMI-1640 medium supplemented with 4 mM glutamine, 0.1 mM nonessential amino acids, 1 mM sodium pyruvate, 10 mM HEPES and 10% FCS and containing either Con A (5 μg/ml) or PHA (10 μg/ml) as the mitogen. AVC was added at the initiation of the culture at the dose of 12 μg/ml. The cultures were then incubated in a 5% CO2 atmosphere. Culture supernatants were collected on day 2, 3 and 4 and tested for the content (Units/ml) of IL-2 using a biological assay consisting in measuring the proliferative response of murine CTLL-2 T cells whose growth in culture is strictly dependent on the presence of IL-2 in the medium. The proliferative response (^3H-Thymidine incorporation) of CTLL-2 cells was plotted on a reference curve constructed with a standard amount of IL-2 and the experimental values calculated accordingly.
(§2) The effect on IL-2 production by AVC was not due to a direct proliferative effect on PBL in culture (Table IV) nor did it have a direct effect on IL-2 production by Jurkat or LBRM-33 T lymphoma cells (Table V).

Experiment [2] has as its system human PBL. As to the kind of experiment: Proliferation of human PBL. It counts as cell-based. Details: unit not given here.
Text: as §2

The test system of experiment [3] is LBRM-33 Cells. As to the kind of experiment: Production of IL-2 by LBRM-33 T lymphoma cells. It counts as cell-based. Here is the method: as §1, §2

In the case of concanavalin A [Con A], the “Production of IL-2” value is 3,815 in experiment [1] (24 Hours), 10,061 in experiment [1] (48 Hours), 28,774 in experiment [3] (24 Hours) and 28,880 in experiment [3] (48 Hours). The “Proliferation of human PBL” value is on record as 3,772 in experiment [2] (Experiment 1, 24 Hours); 37,839 in experiment [2] (Experiment 1, 48 Hours); 42,357 in experiment [2] (Experiment 1, 72 Hours); 182 in experiment [2] (Experiment 2, 24 Hours); 23,767 in experiment [2] (Experiment 2, 48 Hours).

The values are drawn from US20040137085A1, “Treatment of HIV infection with humic acid” (priority 1993, published 2004).
